Patent US20240315994A1, “SMALL MOLECULE MODULATORS OF FERROPTOSIS” (ARPEGGIO BIOSCIENCES, INC., priority 2021, published 2024)

system: HT1080 cells (ATCC, cat #CCL-121); assay: HT1080 CellTiter-Glo 2.0 IC50 assay of working examples; type: cell-based; conditions: HT-1080, 24 hrs, cells plated with and without 1.5 μM ferrostatin-1, table does not say which, Table 7
Protocol: Biological evaluation of working examples A1-A47 and B1-B28 was performed in HT1080 cells (ATCC, cat #CCL-121) according to the procedure provided below.
• 1.1 Cells were harvested from flask into cell culture medium and then the cell number count was determined. • 1.2 The cells were suspended with 1.5 μM ferrostatin-1 and without ferrostatin-1. • 1.3 Cells were plated at a density of 1,500 cells per well in a 384-well black sided clear bottom plate, in 25 μL, using electronic multichannel pipette. • 1.4 Plates were covered with lid and spun for 1 min at 1000 rpm, then allowed to incubate overnight at 37° C. under 5% CO2.
• 2.1 Compounds were dissolved at 10 mM stock solution and 10 μl of diluted solution was transferred to a 384 LDV-plate (LABCYTE, LP-0200). A 3 fold, 11-point dilution was performed. • 2.2 Cells were treated with compounds by plate reformat Echo software and spun for 1 min at 1000 rpm. Then incubated at 37° C. for 24 hrs in a CO2 incubator.
• 3.1 The plates were removed from the incubator and allowed to equilibrate to room temperature, at least 30 minutes. • 3.2 CellTiter-Glo® 2.0 Reagent (Promega, G9242) was added (25 μL) to the assay plates and spun for 1 min at 1000 rpm. Then allowed to stand for about 20 minutes before reading luminescence signal on Envision. • 3.3 The IC50 calculations were determined with a nonlinear fit, variable slope (four parameters) log(inhibitor) vs. response model using GraphPad PRISM.

| IC50 [nM] | Structure (SMILES) |
| --- | --- |
| 1000 to 10000 | O=C(CCl)N(Cc1ccc(F)cc1)c1cnc2[nH]nc(Br)c2c1 [Compound A39, N-(3-bromo-1H-pyrazolo[3,4-b]pyridin-5-yl)-2-chloro-N-[(4-fluorophenyl)methyl]acetamide] |
| 10 to 100 | COc1cc(OC)cc(N(Cc2c(Cl)cc(F)cc2Cl)C(=O)CCl)c1 [Compound A26, 2-chloro-N-[(2,6-dichloro-4-fluoro-phenyl)methyl]-N-(3,5-dimethoxyphenyl)acetamide] |
| 100 to 1000 | O=C(CCl)N(Cc1ccc(F)cc1)C1CCCCC1 [Compound A12, 2-chloro-N-cyclohexyl-N-[(4-fluorophenyl)methyl]acetamide] |
| 1000 to 10000 | COc1ccc(N(Cc2ccc(F)cc2)C(=O)CCl)c(C#N)c1 [Compound A36, 2-chloro-N-(2-cyano-4-methoxy-phenyl)-N-[(4-fluorophenyl)methyl]acetamide] |
| 10 to 100 | COc1cc(OC)cc(N(Cc2ccc(C#N)cc2)C(=O)CCl)c1 [Compound A19, 2-chloro-N-[(4-cyanophenyl)methyl]-N-(3,5-dimethoxyphenyl)acetamide] |
| 10 to 100 | COc1ccccc1CN(C(=O)CCl)c1cc(C)cc(C)c1 [Compound A7, 2-chloro-N-(3,5-dimethylphenyl)-N-[(2-methoxyphenyl)methyl]acetamide] |
| 10 to 100 | Cc1cc(C)cc(N(Cc2cccc(Cl)c2)C(=O)CCl)c1 [Compound A9, 2-chloro-N-[(3-chlorophenyl)methyl]-N-(3,5-dimethylphenyl)acetamide] |
| > 10000 | Cc1ccc(N(Cc2ccc(F)cc2)C(=O)CCl)cn1 [Compound A47, 2-chloro-N-[(4-fluorophenyl)methyl]-N-(6-methyl-3-pyridyl)acetamide] |
| 100 to 1000 | O=C(CCl)N(Cc1ccc(F)cc1)c1cccc(Cl)c1 [Compound A18, 2-chloro-N-(3-chlorophenyl)-N-[(4-fluorophenyl)methyl]acetamide] |
| ≤ 10 | COc1cc(OC)cc(N(Cc2c(C)cc(F)cc2C)C(=O)CCl)c1 [Compound A30, 2-chloro-N-(3,5-dimethoxyphenyl)-N-[(4-fluoro-2,6-dimethyl-phenyl)methyl]acetamide] |
| ≤ 10 | COc1cc(OC)cc(N(Cc2ccc(F)c(F)c2Cl)C(=O)CCl)c1 [Compound A43, 2-chloro-N-[(2-chloro-3,4-difluoro-phenyl)methyl]-N-(3,5-dimethoxyphenyl)acetamide] |
| 100 to 1000 | COc1cc(Cl)cc(N(Cc2ccc(F)cc2)C(=O)CCl)c1 [Compound A14, 2-chloro-N-(3-chloro-5-methoxy-phenyl)-N-[(4-fluorophenyl)methyl]acetamide] |
| 10 to 100 | COc1cc(OC)cc(N(Cc2cc(C#N)ccc2F)C(=O)CCl)c1 [Compound A28, 2-chloro-N-[(5-cyano-2-fluoro-phenyl)methyl]-N-(3,5-dimethoxyphenyl)acetamide] |
| 10 to 100 | COc1c(C)cc(N(Cc2ccc(F)cc2)C(=O)CCl)cc1C [Compound A40, 2-chloro-N-[(4-fluorophenyl)methyl]-N-(4-methoxy-3,5-dimethyl-phenyl)acetamide] |
| 10 to 100 | COc1ccc(CN(C(=O)CCl)c2cc(OC)cc(OC)c2)cc1 [Compound A21, 2-chloro-N-(3,5-dimethoxyphenyl)-N-[(4-methoxyphenyl)methyl]acetamide] |
| 100 to 1000 | Cc1cc(C)cc(N(Cc2ccccc2C)C(=O)CCl)c1 [Compound A11, 2-chloro-N-(3,5-dimethylphenyl)-N-(o-tolylmethyl)acetamide] |
| 100 to 1000 | Cc1cc(C)cc(N(Cc2ccc(Cl)cc2)C(=O)CCl)c1 [Compound A4, 2-chloro-N-[(4-chlorophenyl)methyl]-N-(3,5-dimethylphenyl)acetamide] |
| 10 to 100 | Cc1cccc(CN(C(=O)CCl)c2cc(C)cc(C)c2)c1 [Compound A8, 2-chloro-N-(3,5-dimethylphenyl)-N-(m-tolylmethyl)acetamide] |
| > 10000 | Cc1cc(N(Cc2ccc(F)cc2)C(=O)CCl)cc(C)c1O [Compound A41, 2-chloro-N-[(4-fluorophenyl)methyl]-N-(4-hydroxy-3,5-dimethyl-phenyl)acetamide] |
| 100 to 1000 | O=C(CCl)N(Cc1ccc(F)cc1)c1cc(O)cc(Cl)c1 [Compound A34, 2-chloro-N-(3-chloro-5-hydroxy-phenyl)-N-[(4-fluorophenyl)methyl]acetamide] |
| 100 to 1000 | COc1ccc(Cl)c(N(Cc2ccc(F)cc2)C(=O)CCl)c1 [Compound A37, 2-chloro-N-(2-chloro-5-methoxy-phenyl)-N-[(4-fluorophenyl)methyl]acetamide] |
| 100 to 1000 | Cc1cc(C)cc(N(Cc2ccccc2Cl)C(=O)CCl)c1 [Compound A6, 2-chloro-N-[(2-chlorophenyl)methyl]-N-(3,5-dimethylphenyl)acetamide] |
| 100 to 1000 | COc1cccc(N(Cc2ccc(F)cc2)C(=O)CCl)c1 [Compound A13, 2-chloro-N-[(4-fluorophenyl)methyl]-N-(3-methoxyphenyl)acetamide] |
| 10 to 100 | COc1cc(OC)cc(N(Cc2ccc(F)cc2Br)C(=O)CCl)c1 [Compound A23, N-[(2-bromo-4-fluoro-phenyl)methyl]-2-chloro-N-(3,5-dimethoxyphenyl)acetamide] |
| 100 to 1000 | O=C(CCl)N(Cc1ccc(F)cc1)c1ccc2ncccc2c1 [Compound A22, 2-chloro-N-[(4-fluorophenyl)methyl]-N-(6-quinolyl)acetamide] |
| 10 to 100 | COc1cccc(CN(C(=O)CCl)c2cc(C)cc(C)c2)c1 [Compound A5, 2-chloro-N-(3,5-dimethylphenyl)-N-[(3-methoxyphenyl)methyl]acetamide] |
| 10 to 100 | COc1cc(OC)cc(N(Cc2ccc(F)cc2C(F)(F)F)C(=O)CCl)c1 [Compound A27, 2-chloro-N-(3,5-dimethoxyphenyl)-N-[[4-fluoro-2-(trifluoro-methyl)phenyl]methyl]acetamide] |
| 100 to 1000 | COc1cc(OC)cc(N(Cc2ccc(O)cc2)C(=O)CCl)c1 [Compound A24, 2-chloro-N-(3,5-dimethoxyphenyl)-N-[(4-hydroxyphenyl)methyl]acetamide] |

| Structure (SMILES) | IC50 [nM] |
| --- | --- |
| COc1cc(OC)cc(N(Cc2ccc(F)cc2)C(=O)CCl)c1 [Compound A3, 2-chloro-N-(3,5-dimethoxyphenyl)-N-[(4-fluorophenyl)methyl]acetamide] | 10 to 100 |

same assay, conditions: HT-1080, 24 hrs, cells plated with and without 1.5 μM ferrostatin-1, table does not say which, Table 8

| IC50 [nM] | Structure (SMILES) |
| --- | --- |
| 100 to 1000 | COc1ccc(-c2csc(N(C(=O)CCl)c3cc(C)cc(C)c3)n2)cc1 [Compound B9, 2-chloro-N-(3,5-dimethylphenyl)-N-[4-(4-methoxyphenyl)thiazol-2-yl]acetamide] |
| 100 to 1000 | COc1cccc(N(C(=O)CCl)c2nc(-c3ccc(Br)cc3)cs2)c1 [Compound B17, N-[4-(4-bromophenyl)thiazol-2-yl]-2-chloro-N-(3-methoxyphenyl)acetamide] |
| > 10000 | C=C(F)C(=O)N(c1cc(C)cc(C)c1)c1nc(-c2ccc(Br)cc2)cs1 [Compound B23, N-[4-(4-bromophenyl)thiazol-2-yl]-N-(3,5-dimethylphenyl)-2-fluoro-prop-2-enamide] |
| 1000 to 10000 | COCCCN(C(=O)CCl)c1nc(-c2ccc(OC)cc2)cs1 [Compound B3, 2-chloro-N-[4-(4-methoxyphenyl)thiazol-2-yl]-N-(3-methoxypropyl)acetamide] |
| 10 to 100 | Cc1cc(C)cc(N(C(=O)CI)c2nc(-c3ccc(Br)cc3)cs2)c1 [Compound B21, N-[4-(4-bromophenyl)thiazol-2-yl]-N-(3,5-dimethylphenyl)-2-iodo-acetamide] |
| 100 to 1000 | COc1cc(Cl)cc(N(C(=O)CCl)c2nc(-c3ccc(Br)cc3)cs2)c1 [Compound B24, N-[4-(4-bromophenyl)thiazol-2-yl]-2-chloro-N-(3-chloro-5-methoxy-phenyl)acetamide] |
| 1000 to 10000 | O=C(CCl)N(c1cc(Cl)cc(Cl)c1)c1nc(-c2ccc(Br)cc2)cs1 [Compound B20, N-[4-(4-bromophenyl)thiazol-2-yl]-2-chloro-N-(3,5-dichlorophenyl)acetamide] |
| 10 to 100 | C#CC(=O)N(c1cc(OC)cc(OC)c1)c1nc(-c2ccc(Br)cc2)cs1 [Compound B19, N-[4-(4-bromophenyl)thiazol-2-yl]-N-(3,5-dimethoxyphenyl)prop-2-ynamide] |
| 100 to 1000 | Cc1cc(C)cc(N(C(=O)CCl)c2nc(C3CCCCC3)cs2)c1 [Compound B10, 2-chloro-N-(4-cyclohexylthiazol-2-yl)-N-(3,5-dimethylphenyl)acetamide] |
| > 10000 | C=CC(=O)N(c1cc(C)cc(C)c1)c1nc(-c2ccc(Br)cc2)cs1 [Compound B7, N-[4-(4-bromophenyl)thiazol-2-yl]-N-(3,5-dimethylphenyl)prop-2-enamide] |
| 10 to 100 | C#CC(=O)N(c1cc(Cl)cc(OC)c1)c1nc(-c2ccc(Br)cc2)cs1 [Compound B26, N-[4-(4-bromophenyl)thiazol-2-yl]-N-(3-chloro-5-methoxy-phenyl)prop-2-ynamide] |
| 1000 to 10000 | C#CC(=O)N(CCCOC)c1nc(-c2ccc(Br)cc2)cs1 [Compound B2, N-[4-(4-bromophenyl)thiazol-2-yl]-N-(3-methoxypropyl)prop-2-ynamide] |
